Key:
[1] = Metabolic stability in human liver microsomes after 1 hr; format: ADME, Microsome; settings: read-out: Stability
[2] = Aqueous solubility at pH 2; format: physicochemical
[3] = […] bioavailability in ip dosed rat; format: ADME, organism-based; settings: in vivo, intraperitoneal
[4] = Aqueous solubility at pH 7; format: physicochemical
[5] = […] bioavailability in sc dosed rat; format: ADME, organism-based; settings: in vivo, subcutaneous

remaining at 1 h [1]: 100%
solubility [2]: > 7 mg/mL
bioavailability [3]: 74%
solubility [4]: > 7 mg/mL
bioavailability [5]: 100%
SMILES: C[N+](C)(Cc1ccc(NC(=O)c2ccc(Cl)c(Cl)c2)cc1)C1CCOCC1 [JNJ-17166864 CATION]

Reference: ChEMBL document CHEMBL1140669, “Potent and selective CC-chemokine receptor-2 (CCR2) antagonists as a potential treatment for asthma” (Bioorg Med Chem Lett, 2007)
